{"source": "patent US20210179577A1", "about": "“AROMATIC SULFONAMIDE DERIVATIVES FOR THE TREATMENT OF ISCHEMIC STROKE” (Bayer Aktiengesellschaft, priority 2017, published 2021)", "tested_on": "Sprague Dawley (SD) rats", "assay": "tMCAO-Induced Ischemic Stroke Model in Rats", "assay_type": "in vivo, rat", "conditions": "per os twice a day for seven days, from day 8 on, p<5% vs vehicle treated tMCAO-group", "experimental": "Transient middle cerebral artery occlusion (tMCAO) was performed in approximately 3 months old male Sprague Dawley (SD) rats according to the method described by Schmid-Elsaesser et al. [Stroke. 1998; 29(10):2162-2170]. In particular, the right common carotid artery (CCA) was exposed through a midline neck incision and carefully dissected free from surrounding nerves and fascia—from its bifurcation to the base of the skull. […] The ECA was dissected further distally and coagulated along with the terminal lingual and maxillary artery branches, just before their bifurcation. The internal carotid artery (ICA) was isolated and carefully separated from the adjacent vagus nerve, and the pterygopalatine artery was ligated close to its origin with a 5-0 nylon suture. Thereafter, a 4-0 silk suture was tied loosely around the mobilized ECA stump, and a 4 cm length of Doccol 4-0 monofilament suture (coated with silicone) was inserted through the proximal ECA into the ICA and thence into the circle of Willis, effectively occluded the MCA. The surgical wound was closed and the animals were returned to their cages for recovery from anesthesia. Two hours after occlusion, rats were re-anesthetized and the monofilament was withdrawn to allow reperfusion. The wound was closed again and rats were returned to their cages.\nFour groups of rats with 12-15 rats per group were included into the study. […]", "data": [{"compound": "N#Cc1cnn(-c2ccc(NC(=O)Cc3ccccc3Cl)cc2S(N)(=O)=O)c1", "note": "[Example 39, 2-(2-Chlorophenyl)-N-[4-(4-cyano-1H-pyrazol-1-yl)-3-sulfamoylphenyl]acetamide]", "values": [{"measurement": "modified neurologic severity score (mNSS)", "value": "significant smaller mNSS than the vehicle treated tMCAO-group"}]}]}
